# Source: patent US20050208394A1, “Dye-containing curable composition, color filter and method of producing the color filter” (FUJI PHOTO FILM CO., LTD., priority 2004, published 2005)
# Columns and labels:
# [1] = Heat resistance: change in chromaticity ΔEab* of the coated glass substrate after hot plate heating; type: physicochemical; conditions: 200° C. for one hour
# Protocol: The glass substrate coated with the dye resist solution was placed on a hot plate such that its surface was in contact with the hot plate and heated at 200° C. for one hour to measure a change in chromaticity, namely ΔEab* value, before and after the substrate was placed, by using a chromaticity meter (trade name: MCPD-1000, manufactured by Otsuka Electronics Co., Ltd.). The obtained ΔEab* value was adopted as an index showing the degree of […] and evaluated based on the following criteria. The smaller the ΔEab* value is, the higher the heat resistance is.
# • A: ΔEab* was 5 or less. • B: ΔEab* exceeded 5 and was less than 10. • C: ΔEab* was 10 or more. —Light Fastness—
# [2] = Light fastness: change in chromaticity ΔEab* of the coated glass substrate after xenon lamp irradiation; type: physicochemical; conditions: xenon lamp 50,000 Lux for 10 hours
# Protocol: The glass substrate coated with the dye resist solution was irradiated with 50,000 Lux light from a xenon lamp for 10 hours (corresponding to 500,000 Lux·h) and then, a change in chromaticity, namely ΔEab* value, before and after the irradiation was measured. The obtained ΔEab* value was adopted as an index showing the degree of […] and evaluated based on the following criteria. The smaller the ΔEab* value is, the higher the […] is.
# • A: ΔEab* was 3 or less. • B: ΔEab* exceeded 3 and was less than 10. • C: ΔEab* was 10 or more. —Pattern Shape—
# A cyan pattern image was obtained by carrying out coating, prebaking, irradiation, developing, rinsing and drying in the same manner as in Example 1 and then heated at 180° C. for 5 minutes. Also, the heat resistance, light fastness and pattern shape were evaluated in the same manner as in Example 1 and also the solubility of the dye (exemplified compound (3)) was evaluated visually according to the same criteria as in Example 1 from the degree of solubility when the dye was dissolved in the above “1) Preparation of a dye resist solution (positive type dye-containing curable composition)”.
# [3] = negative type dye resist film on glass
# [4] = positive type dye resist film on glass
"Heat resistance [1, 3]","Heat resistance [1, 4]","Light fastness [2, 3]","Light fastness [2, 4]",Compound
A (ΔEab* was 5 or less.),A (ΔEab* was 5 or less.),A (ΔEab* was 3 or less.),A (ΔEab* was 3 or less.),"Tetra-α-(3,5-dimethylpyrazolyl)zinc phthalocyanine [Exemplified compound (3)]"
A (ΔEab* was 5 or less.),A (ΔEab* was 5 or less.),A (ΔEab* was 3 or less.),A (ΔEab* was 3 or less.),"Tetra-β-(3,5-dimethylpyrazolyl)zinc phthalocyanine [Exemplified compound (4)]"
–,A (ΔEab* was 5 or less.),–,A (ΔEab* was 3 or less.),Cc1cc(C)n(-c2ccc3c(c2)-c2nc-3nc3[n-]c(nc4nc(nc5[n-]c(n2)c2ccc(-n6nc(C)cc6C)cc52)-c2cc(-n5nc(C)cc5C)ccc2-4)c2ccc(-n4nc(C)cc4C)cc32)n1.[Ni+2] [Exemplified compound (16)]
